Inconclusive results are not listed.

The target of the assay is PAR-4 (PAWR) - atypical PKC interaction. The experiment in a line: PAR4-aPKC binding disruptors (AID 1581). Conditions: PAR4-aPKC protein interaction assay, normalized signal.
With `C=Cc1c(C)c2cc3[nH]c(cc4nc(cc5nc(cc1[nH]2)C(C)=C5CCC(=O)O)C(CCC(=O)O)=C4C)c(C)c3C=C`, the EC50 (as a rule, the concentration giving half of the maximal effect) was 14 µM.
`NC[C@H](O)c1ccc(O)c(O)c1`: the EC50 was 29 µM.
Next, `O=C1C=CC(=O)c2c(O)cccc21`: 18 µM; `N[C@@H](Cc1ccc(O)c(O)c1)C(=O)O`: 13 µM.
Consider `O=c1c(O)c(-c2ccc(O)cc2O)oc2cc(O)cc(O)c12`, for which the EC50 is 10 µM.
As for `O=c1c(O)cc2c(O)oc3c(=O)c(O)cc4c3c2c1CC=4O`, the EC50 is 21 µM.
As for `CO[C@@]1(NC(=O)C(C(=O)O)c2ccc(O)cc2)C(=O)N2C(C(=O)O)=C(CSc3nnnn3C)CO[C@@H]21` (some centres not stated), the EC50 is 11 µM.

(Values after PubChem BioAssay AID1581.)
